Assay results as given in patent US9725460B2, “Oridonin analogs, compositions, and methods related thereto” (THE BOARD OF REGENTS OF THE UNIVERSITY OF TEXAS SYSTEM, priority 2013, dated 2017).
Where two headings read alike, the source gives them in different places.

What was measured:
[1] = system: MDA-MB-231; assay: MTT cancer cell proliferation assay, MDA-MB-231; assay type: cell-based, human
Method: (§1) In Vitro Determination of Effects of Synthesized Diterpenoids on Cancer Cell Proliferation. Breast cancer cell lines MCF-7, MDA-MB-231, […] and MCF/ADR were seeded in 96-well plates at a density of 1×10^4 cells/well and treated with DMSO and 0.01, 0.1, 1, 5, 10, and 100 μM of individual compound for 48 h, and then 20 μL of 3-(4,5-dimethylthiazol-2-yl)-2,5-diphenyltetrazolium bromide (MTT) (5 mg/mL in PBS) was added to each well and further incubated for another 4 h. Then MTT solution was removed, and 150 μL of DMSO was added to each well. Absorbance of all wells was determined by measuring OD at 550 nm after a 10 min incubation on a 96-well GlowMaxate absorbance reader (Promega, Madison, Wis.). Each individual compound was tested in quadruplicate wells for each concentration.
(§2) The growth inhibitory effects of the newly generated pyran-fused diterpenoids were evaluated in four breast cancer cell lines MCF-7 (ER-positive), MDAMB-231 (ER-negative and triple-negative), MDA-MB-468 (ER-negative and triple-negative) as well as MCF-7/ADR (adriamycin-resistant) using MTT assays as described in the Experimental Section.

[2] = system: MCF-7/ADR; assay: MTT growth inhibition, drug-resistant MCF-7/ADR; assay type: cell-based, human; settings: Table 3, adriamycin-resistant, MTT 48 h, mean ± SE of three experiments
Method: as §1
(§3) The growth inhibitory effects of the newly generated pyran-fused diterpenoids were evaluated in four breast cancer cell lines MCF-7 (ER-positive), MDAMB-231 (ER-negative and triple-negative), MDA-MB-468 (ER-negative and triple-negative) as well as MCF-7/ADR (adriamycin-resistant) using MTT assays as described in the Experimental Section. The capability of these new molecules to inhibit the growth of cancer cells was summarized in Table 3 and compared with that of adriamycin and 1 spontaneously.

[3] = system: MDA-MB-468; assay: MTT cancer cell proliferation assay, MDA-MB-468; assay type: cell-based, human; settings: Table 3, pyran-fused diterpenoids, MTT 48 h, mean ± SE of three experiments
Method: as §1, §3

[4] = system: MCF-7; assay: MTT cancer cell proliferation assay, MCF-7; assay type: cell-based, human
Method: as §1, §2

[5] = system: DU145; assay: Cancer cell proliferation assay, DU145; assay type: cell-based; settings: Homo sapiens, DU-145
[6] = system: Panc-1; assay: Cancer cell proliferation assay, Panc-1; assay type: cell-based; settings: Homo sapiens, PANC-1
Method: (§4) In Vitro Determination of Effects of Synthesized Diterpenoids on Cancer Cell Proliferation. […] Then MTT solution was removed, and 150 μL of DMSO was added to each well. Absorbance of all wells was determined by measuring OD at 550 nm after a 10 min incubation on a 96-well GlowMaxate absorbance reader (Promega, Madison, Wis.). Each individual compound was tested in quadruplicate wells for each concentration.

[7] = system: AsPC1; assay: Cancer cell proliferation assay, AsPC1; assay type: cell-based; settings: Homo sapiens, ASPC1
Method: as §4

[8] = Homo sapiens, MDA-MB-231, 48 h, Table 3, pyran-fused diterpenoids, MTT 48 h, mean ± SE of three experiments, read-out: IC50 (μM) MDA-MB-231
[9] = Homo sapiens, NCI/ADR-RES, 48 h
[10] = Homo sapiens, MCF7, 48 h, Table 3, pyran-fused diterpenoids, MTT 48 h, mean ± SE of three experiments, read-out: IC50 (μM) MCF-7
[11] = Table 1a, prostate cancer, read-out: IC50 (μM) DU145
[12] = Table 2b, mean of at least three experiments, read-out: Effect on proliferation DU145 (IC50)
[13] = Homo sapiens, MDA-MB-231, Table 1a, breast cancer, read-out: IC50 (μM) MDA-MB-231
[14] = Homo sapiens, MDA-MB-231, Table 2b, mean of at least three experiments, read-out: Effect on proliferation MDA-MB-231 (ER negative) (IC50)
[15] = Table 1a, pancreatic cancer, read-out: IC50 (μM) Panc-1
[16] = Table 2b, mean of at least three experiments, read-out: Effect on proliferation Panc-1 (IC50)
[17] = Table 1a, pancreatic cancer, read-out: IC50 (μM) AsPC1
[18] = Table 2b, mean of at least three experiments, read-out: Effect on proliferation AsPC1 (IC50)
[19] = Homo sapiens, MCF7, Table 1a, breast cancer, read-out: IC50 (μM) MCF-7
[20] = Homo sapiens, MCF7, Table 2b, mean of at least three experiments, read-out: Effect on proliferation MCF-7 (ER positive) (IC50)

Compound: C=CCO[C@H]1CCC2=C(O1)[C@@]13CO[C@@]4(OC(C)(C)O[C@@H]5[C@H]6CC[C@@H]1[C@]54C(=O)C6=C)[C@@H](O)[C@@H]3C(C)(C)C2 [CYD-8-66-1]
- IC50 [1, 8]: 7.12 ± 0.22 µM
- IC50 [2, 9]: 4.31 ± 2.43 µM
- IC50 ([3]; Homo sapiens, MDA-MB-468, 48 h): 4.89 ± 0.85 µM
- IC50 [4, 10]: 4.32 ± 1.82 µM

Compound: C=C1C(=O)[C@@]23C(CC[C@H]1[C@H]2O)[C@@]12CO[C@]3(O)[C@@H](O)C1C(C)(C)Cc1sc(N3CCCCCC3)nc12 (stereo partly drawn) [CYD-6-26-2, (6S,7S,7aR,10R,12bR,15R)-2-(azepan-1-yl)-6,7,15-trihydroxy-5,5-dimethyl-9-methylene-5,5a,6,7,10,11,12,12a-octahydro-4H-7,12b-(epoxymethano)-7a,10-methanocyclohepta[7,8]naphtho[1,2-d]thiazol-8(9H)-one]
- IC50 [5, 11]: 4.74 µM
- IC50 [5, 12]: 4.7 µM
- IC50 [1, 13]: 6.82 µM
- IC50 [1, 14]: 6.8 µM
- IC50 [6, 15]: 6.29 µM
- IC50 [6, 16]: 6.3 µM
- IC50 [7, 17]: 2.3 µM
- IC50 [7, 18]: 2.3 µM
- IC50 [4, 19]: 1.15 µM
- IC50 [4, 20]: 1.2 µM

Compound: C=C1C(=O)[C@@]23[C@@H]4OC(C)(C)O[C@@]25OC[C@]2(C6=C(CC[C@H](OCC)O6)CC(C)(C)[C@H]2[C@@H]5O)[C@@H]3CC[C@@H]14 [CYD-8-69-2]
- IC50 [1, 8]: 3.73 ± 0.28 µM
- IC50 [2, 9]: 6.79 ± 3.46 µM
- IC50 ([3]; Homo sapiens, MDA-MB-468, 48 h): 5.81 ± 1.92 µM
- IC50 [4, 10]: 2.41 ± 1.86 µM

Compound: C=C1C(=O)[C@@]23[C@@H]4OC(C)(C)O[C@@]25OC[C@]2(C6=C(C[C@H]7CCCO[C@H]7O6)CC(C)(C)[C@H]2[C@@H]5O)[C@@H]3CC[C@@H]14 [CYD-8-74-2]
- IC50 [1, 8]: 2.53 ± 0.77 µM
- IC50 [2, 9]: 2.89 ± 0.32 µM
- IC50 ([3]; Homo sapiens, MDA-MB-468, 48 h): 3.33 ± 0.58 µM
- IC50 [4, 10]: 2.39 ± 0.78 µM

Compound: C=C1C(=O)[C@@]23[C@@H]4OC(C)(C)O[C@@]25OC[C@]2(C6=C(CC[C@@H](OCC)O6)CC(C)(C)[C@H]2[C@@H]5O)[C@@H]3CC[C@@H]14 [CYD-8-45-1]
- IC50 ([1]; Table 3, pyran-fused diterpenoids, MTT 48 h, mean ± SE of three experiments, read-out: IC50 (μM) MDA-MB-231): 6.13 ± 2.43 µM
- IC50 [2]: 4.65 ± 3.15 µM
- IC50 [3]: 5.4 ± 0.98 µM
- IC50 ([4]; Table 3, pyran-fused diterpenoids, MTT 48 h, mean ± SE of three experiments, read-out: IC50 (μM) MCF-7): 3.52 ± 2.15 µM

Compound: C=C1C(=O)[C@@]23[C@@H]4OC(C)(C)O[C@@]25OC[C@]2(C6=C(CC[C@@H](OCC(C)C)O6)CC(C)(C)[C@H]2[C@@H]5O)[C@@H]3CC[C@@H]14 [CYD-8-52-2]
- IC50 [1, 8]: 8.18 ± 0.57 µM
- IC50 [2, 9]: 10.3 ± 1.65 µM
- IC50 ([3]; Homo sapiens, MDA-MB-468, 48 h): 6.95 ± 1.01 µM
- IC50 [4, 10]: 5.83 ± 3.75 µM

Compound: C=C1C(=O)[C@@]23[C@@H]4OC(C)(C)O[C@@]25OC[C@]2(C6=C(CC[C@H](OCCCl)O6)CC(C)(C)[C@H]2[C@@H]5O)[C@@H]3CC[C@@H]14 [CYD-8-65-1]
- IC50 [1, 8]: 3.3 ± 1.81 µM
- IC50 [2, 9]: 3.08 ± 1.12 µM
- IC50 ([3]; Homo sapiens, MDA-MB-468, 48 h): 2.99 ± 1.01 µM
- IC50 [4, 10]: 2.31 ± 1.02 µM

Compound: C=C1C(=O)[C@@]23[C@@H]4OC(C)(C)O[C@@]25OC[C@]2(C6=C(CC[C@@H](OCCCCO)O6)CC(C)(C)[C@H]2[C@@H]5O)[C@@H]3CC[C@@H]14 [CYD-8-67-2]
- IC50 [1, 8]: 5.89 ± 2.04 µM
- IC50 [2, 9]: 5.34 ± 1.29 µM
- IC50 ([3]; Homo sapiens, MDA-MB-468, 48 h): 5.96 ± 0.29 µM
- IC50 [4, 10]: 5.17 ± 2.9 µM

Compound: C=C1C(=O)[C@@]23[C@@H]4OC(C)(C)O[C@@]25OC[C@]2(C6=C(CC[C@@H](SCC)O6)CC(C)(C)[C@H]2[C@@H]5O)[C@@H]3CC[C@@H]14 [CYD-8-84]
- IC50 [1, 8]: 2.87 ± 0.54 µM
- IC50 [2, 9]: 3.82 ± 0.47 µM
- IC50 ([3]; Homo sapiens, MDA-MB-468, 48 h): 2.83 ± 0.42 µM
- IC50 [4, 10]: 2.3 ± 1.4 µM

Compound: C=C1C(=O)[C@@]23[C@@H]4OC(C)(C)O[C@@]25OC[C@]2(C6=C(CC[C@H](OCC(C)C)O6)CC(C)(C)[C@H]2[C@@H]5O)[C@@H]3CC[C@@H]14 [CYD-8-52-1]
- IC50 [1, 8]: 1.76 ± 0.22 µM
- IC50 [2, 9]: 4.42 ± 0.9 µM
- IC50 ([3]; Homo sapiens, MDA-MB-468, 48 h): 2.62 ± 0.08 µM
- IC50 [4, 10]: 2.24 ± 1.33 µM

Compound: C=C1C(=O)[C@]23[C@H](O)[C@H]1CC[C@H]2[C@@]12CO[C@]3(O)[C@@H](O)[C@@H]1C(C)(C)Cc1sc(N)nc12 [CYD-5-41, (5aR,6S,7S,7aR,10S,12aS,12bR,15R)-2-amino-6,7,15-trihydroxy-5,5-dimethyl-9-methylene-5,5a,6,7,10,11,12,12a-octahydro-4H-7,12b-(epoxymethano)-7a,10-methanocyclohepta[7,8]naphtho[1,2-d]thiazol-8(9H)-one]
- IC50 [5, 11]: 3.46 µM
- IC50 [5, 12]: 3.5 µM
- IC50 [1, 13]: 3.24 µM
- IC50 [1, 14]: 3.2 µM
- IC50 [6, 15]: 6.13 µM
- IC50 [6, 16]: 6.1 µM
- IC50 [7, 17]: 5.58 µM
- IC50 [7, 18]: 5.6 µM
- IC50 [4, 19]: 1.02 µM
- IC50 [4, 20]: 1 µM

Compound: COc1cccc2c1C(=O)c1c(O)c3c(c(O)c1C2=O)C[C@@](O)(C(=O)CO)C[C@@H]3O[C@H]1C[C@H](N)[C@H](O)[C@H](C)O1 [Adriamycin, reference compound]
- IC50 [1, 8]: 2.33 ± 0.22 µM
- IC50 [2, 9]: > 10 µM
- IC50 ([3]; Homo sapiens, MDA-MB-468, 48 h): 0.65 ± 0.26 µM
- IC50 [4, 10]: 0.67 ± 0.45 µM

Compound: C=C1C(=O)[C@@]23C(CC[C@H]1[C@H]2O)[C@@]12CO[C@]3(O)[C@@H](O)C1C(C)(C)Cc1sc(NC(C)=O)nc12 (stereo partly drawn) [CYD-6-21, N-((6S,7S,7aR,10R,12bR,15R)-6,7,15-trihydroxy-5,5-dimethyl-9-methylene-8-oxo-5,5a,6,7,8,9,10,11,12,12a-decahydro-4H-7,12b-(epoxymethano)-7a,10-methanocyclohepta[7,8]naphtho[1,2-d]thiazol-2-yl)acetamide]
- IC50 [5, 11]: 6.34 µM
- IC50 [5, 12]: 6.3 µM
- IC50 [1, 13]: 6.82 µM
- IC50 [1, 14]: 6.8 µM
- IC50 [6, 15]: 6.71 µM
- IC50 [6, 16]: 6.7 µM
- IC50 [7, 17]: 4.83 µM
- IC50 [7, 18]: 4.8 µM
- IC50 [4, 19]: 1.99 µM
- IC50 [4, 20]: 2 µM

Compound: C=C1C(=O)[C@@]23[C@@H]4OC(C)(C)OC25OC[C@]2(C=CCC(C)(C)[C@H]2[C@@H]5O)[C@@H]3CC[C@@H]14 [CYD-6-75, (3S,3aR,3a^1R,6aR,7S,7aR,11aR,11bS)-7-hydroxy-5,5,8,8-tetramethyl-15-methylene-2,3,3a,7,7a,8,9,11b-octahydro-1H-6a,11a-(epoxymethano)-3,3a^1-ethanophenanthro[1,10-de][1,3]dioxin-14-one]
- IC50 ([1]; Homo sapiens, MDA-MB-231, Table 2a, A-ring modified analogues, read-out: IC50 (μM) MDA-MB-231): 3.95 µM
- IC50 ([6]; Table 2a, A-ring modified analogues, read-out: IC50 (μM) Panc-1): 7.25 µM
- IC50 ([7]; Table 2a, A-ring modified analogues, read-out: IC50 (μM) AsPC1): 6.78 µM
- IC50 ([4]; Homo sapiens, MCF7, Table 2a, A-ring modified analogues, read-out: IC50 (μM) MCF-7): 0.95 µM
